Test results taken from patent US8450357B2, “Compositions comprising an aryl pyrazole and/or a formamidine, methods and uses thereof” (Merial Limited, priority 2008, dated 2013).

Tests used:
[1] = system: fleas (Ctenocephalides felis); assay: Study B: flea efficacy of Compound 1 spot-on formulations in dogs; format: in vivo
Source text: A separate clinical efficacy study in dogs was designed with an untreated control group and 5 test groups treated with compound 1. Each group had six dogs. Test articles were formulated as topical spot-on solutions containing compound 1, 10-20% w/v in a solvent or a combination of solvents as described above. Dogs were infested with approximately 50 ticks (Rhipicephalus sanguineus) on days −1, 7, 14, 21, 28, 35 and 42. Dogs were also infested with approximately 100 fleas (Ctenocephalides felis) on days −1, 8, 15, 22, 29, 36, and 43. Treatment was applied by parting the hair and applying the formulation directly onto the skin on one spot at the midline of the neck, between the base of the skull and the shoulder blades. […] […] It should be noted that Study A and Study B were conducted at different times and locations, and the results of each clinical study may differ from the other based on various environmental factors. Thus, the results of one clinical study should not be compared with those of another due to these factors.

[2] = system: fleas (Ctenocephalides felis); assay: Study A: flea efficacy of Compound 1 spot-on formulations in dogs; format: in vivo
Protocol: An initial clinical study was conducted to test the efficacy of Compound 1 (3-cyano-1-(2-chloro-6-fluoro-4-trifluoromethylphenyl)-4-dichlorofluoromethylsulfinyl-5-methyl-1H-pyrazole) against ticks and fleas in various test formulations. Five test groups and an untreated control were evaluated. Each test group included six dogs. Compound was dissolved in a solvent or a combination of two or more solvents at 10% w/w. Test articles were formulated as topical spot-on solutions containing compound 1, 10% w/v in a solvent or a combination of solvents as described above. Dogs were infested with approximately 50 ticks (Rhipicephalus sanguineus) on days −1, 7, 14, 21, 28, 35 and 42. Dogs were also infested with approximately 100 fleas (Ctenocephalides felis) on days −1, 8, 15, 22, 29, 36, and 43. Treatment was applied by parting the hair and applying the formulation directly onto the skin on one spot at the midline of the neck, between the base of the skull and the shoulder blades. The dose rate of each of the topical solutions was 0.1 ml/kg (10 mg/kg) body weight. The efficacy of compound 1 in various formulations is shown Table 2 below.

[3] = 14C radiolabeled drug, spot-on administration, beagle dogs; cited from earlier work

Structure (SMILES): Cc1c([S+]([O-])C(F)(Cl)Cl)c(C#N)nn1-c1c(F)cc(C(F)(F)F)cc1Cl (stereo not drawn) [Compound 1, 3-cyano-1-(2-chloro-6-fluoro-4-trifluoromethylphenyl)-4-dichlorofluoromethylsulfinyl-5-methyl-1H-pyrazole]
- % Efficacy against fleas ([1]; Day 2, Trt. Group 2: 0.1 ml/kg (10 mg/kg) in Triacetin): 100%
- % Efficacy against fleas ([1]; Day 2, Trt. Group 3: 0.2 ml/kg (20 mg/kg) in Triacetin): 100%
- % Efficacy against fleas ([1]; Day 2, Trt. Group 4: 10 mg/kg in Diisopropyl adipate): 100%
- % Efficacy against fleas ([1]; Day 2, Trt. Group 5: 10 mg/kg in Diethylene glycol monoethyl ether (transcutol)): 100%
- % Efficacy against fleas ([1]; Day 2, Trt. Group 6: 10 mg/kg in Triacetin/diisopropyl adipate): 100%
- % Efficacy against fleas ([1]; Day 9, Trt. Group 2: 0.1 ml/kg (10 mg/kg) in Triacetin): 100%
- % Efficacy against fleas ([1]; Day 9, Trt. Group 3: 0.2 ml/kg (20 mg/kg) in Triacetin): 100%
- % Efficacy against fleas ([1]; Day 9, Trt. Group 4: 10 mg/kg in Diisopropyl adipate): 100%
- % Efficacy against fleas ([1]; Day 9, Trt. Group 5: 10 mg/kg in Diethylene glycol monoethyl ether (transcutol)): 100%
- % Efficacy against fleas ([1]; Day 9, Trt. Group 6: 10 mg/kg in Triacetin/diisopropyl adipate): 100%
- % Efficacy against fleas ([1]; Day 16, Trt. Group 2: 0.1 ml/kg (10 mg/kg) in Triacetin): 100%
- % Efficacy against fleas ([1]; Day 16, Trt. Group 3: 0.2 ml/kg (20 mg/kg) in Triacetin): 100%
- % Efficacy against fleas ([1]; Day 16, Trt. Group 4: 10 mg/kg in Diisopropyl adipate): 100%
- % Efficacy against fleas ([1]; Day 16, Trt. Group 5: 10 mg/kg in Diethylene glycol monoethyl ether (transcutol)): 100%
- % Efficacy against fleas ([1]; Day 16, Trt. Group 6: 10 mg/kg in Triacetin/diisopropyl adipate): 100%
- % Efficacy against fleas ([1]; Day 23, Trt. Group 2: 0.1 ml/kg (10 mg/kg) in Triacetin): 99.8%
- % Efficacy against fleas ([1]; Day 23, Trt. Group 3: 0.2 ml/kg (20 mg/kg) in Triacetin): 99.8%
- % Efficacy against fleas ([1]; Day 23, Trt. Group 4: 10 mg/kg in Diisopropyl adipate): 100%
- % Efficacy against fleas ([1]; Day 23, Trt. Group 5: 10 mg/kg in Diethylene glycol monoethyl ether (transcutol)): 99.8%
- % Efficacy against fleas ([1]; Day 23, Trt. Group 6: 10 mg/kg in Triacetin/diisopropyl adipate): 99.8%
- % Efficacy against fleas ([1]; Day 30, Trt. Group 2: 0.1 ml/kg (10 mg/kg) in Triacetin): 99.7%
- % Efficacy against fleas ([1]; Day 30, Trt. Group 3: 0.2 ml/kg (20 mg/kg) in Triacetin): 100%
- % Efficacy against fleas ([1]; Day 30, Trt. Group 4: 10 mg/kg in Diisopropyl adipate): 100%
- % Efficacy against fleas ([1]; Day 30, Trt. Group 5: 10 mg/kg in Diethylene glycol monoethyl ether (transcutol)): 100%
- % Efficacy against fleas ([1]; Day 30, Trt. Group 6: 10 mg/kg in Triacetin/diisopropyl adipate): 100%
- % Efficacy against fleas ([1]; Day 37, Trt. Group 2: 0.1 ml/kg (10 mg/kg) in Triacetin): 99.8%
- % Efficacy against fleas ([1]; Day 37, Trt. Group 3: 0.2 ml/kg (20 mg/kg) in Triacetin): 100%
- % Efficacy against fleas ([1]; Day 37, Trt. Group 4: 10 mg/kg in Diisopropyl adipate): 98.9%
- % Efficacy against fleas ([1]; Day 37, Trt. Group 5: 10 mg/kg in Diethylene glycol monoethyl ether (transcutol)): 100%
- % Efficacy against fleas ([1]; Day 37, Trt. Group 6: 10 mg/kg in Triacetin/diisopropyl adipate): 100%
- % Efficacy against fleas ([1]; Day 44, Trt. Group 2: 0.1 ml/kg (10 mg/kg) in Triacetin): 100%
- % Efficacy against fleas ([1]; Day 44, Trt. Group 3: 0.2 ml/kg (20 mg/kg) in Triacetin): 100%
- % Efficacy against fleas ([1]; Day 44, Trt. Group 4: 10 mg/kg in Diisopropyl adipate): 99.6%
- % Efficacy against fleas ([1]; Day 44, Trt. Group 5: 10 mg/kg in Diethylene glycol monoethyl ether (transcutol)): 100%
- % Efficacy against fleas ([1]; Day 44, Trt. Group 6: 10 mg/kg in Triacetin/diisopropyl adipate): 100%
- % Efficacy against fleas ([1]; Day 51, Trt. Group 2: 0.1 ml/kg (10 mg/kg) in Triacetin): 99.8%
- % Efficacy against fleas ([1]; Day 51, Trt. Group 3: 0.2 ml/kg (20 mg/kg) in Triacetin): 99.7%
- % Efficacy against fleas ([1]; Day 51, Trt. Group 4: 10 mg/kg in Diisopropyl adipate): 98.5%
- % Efficacy against fleas ([1]; Day 51, Trt. Group 5: 10 mg/kg in Diethylene glycol monoethyl ether (transcutol)): 100%
- % Efficacy against fleas ([1]; Day 51, Trt. Group 6: 10 mg/kg in Triacetin/diisopropyl adipate): 100%
- % Efficacy against fleas ([1]; Day 58, Trt. Group 2: 0.1 ml/kg (10 mg/kg) in Triacetin): 99.6%
- % Efficacy against fleas ([1]; Day 58, Trt. Group 3: 0.2 ml/kg (20 mg/kg) in Triacetin): 99.0%
- % Efficacy against fleas ([1]; Day 58, Trt. Group 4: 10 mg/kg in Diisopropyl adipate): 96.7%
- % Efficacy against fleas ([1]; Day 58, Trt. Group 5: 10 mg/kg in Diethylene glycol monoethyl ether (transcutol)): 100%
- % Efficacy against fleas ([1]; Day 58, Trt. Group 6: 10 mg/kg in Triacetin/diisopropyl adipate): 98.8%
- % Efficacy against fleas ([2]; Day 2, Trt. Group 2: 10 mg/kg in Butyl acetate/octyl acetate): 99.6%
- % Efficacy against fleas ([2]; Day 2, Trt. Group 3: 10 mg/kg in Diethylene glycol monoethyl ether (transcutol)/N-methyl-2-pyrrolidone): 96.0%
- % Efficacy against fleas ([2]; Day 2, Trt. Group 4: 10 mg/kg in Dipropylene glycol monomethyl ether/butyl acetate): 100%
- % Efficacy against fleas ([2]; Day 2, Trt. Group 5: 10 mg/kg in Diisopropyl adipate): 100%
- % Efficacy against fleas ([2]; Day 2, Trt. Group 6: 10 mg/kg in Triacetin): 98.0%
- % Efficacy against fleas ([2]; Day 9, Trt. Group 2: 10 mg/kg in Butyl acetate/octyl acetate): 100%
- % Efficacy against fleas ([2]; Day 9, Trt. Group 3: 10 mg/kg in Diethylene glycol monoethyl ether (transcutol)/N-methyl-2-pyrrolidone): 100%
- % Efficacy against fleas ([2]; Day 9, Trt. Group 4: 10 mg/kg in Dipropylene glycol monomethyl ether/butyl acetate): 100%
- % Efficacy against fleas ([2]; Day 9, Trt. Group 5: 10 mg/kg in Diisopropyl adipate): 100%
- % Efficacy against fleas ([2]; Day 9, Trt. Group 6: 10 mg/kg in Triacetin): 100%
- % Efficacy against fleas ([2]; Day 16, Trt. Group 2: 10 mg/kg in Butyl acetate/octyl acetate): 100%
- % Efficacy against fleas ([2]; Day 16, Trt. Group 3: 10 mg/kg in Diethylene glycol monoethyl ether (transcutol)/N-methyl-2-pyrrolidone): 99.8%
- % Efficacy against fleas ([2]; Day 16, Trt. Group 4: 10 mg/kg in Dipropylene glycol monomethyl ether/butyl acetate): 100%
- % Efficacy against fleas ([2]; Day 16, Trt. Group 5: 10 mg/kg in Diisopropyl adipate): 100%
- % Efficacy against fleas ([2]; Day 16, Trt. Group 6: 10 mg/kg in Triacetin): 100%
- % Efficacy against fleas ([2]; Day 23, Trt. Group 2: 10 mg/kg in Butyl acetate/octyl acetate): 99.4%
- % Efficacy against fleas ([2]; Day 23, Trt. Group 3: 10 mg/kg in Diethylene glycol monoethyl ether (transcutol)/N-methyl-2-pyrrolidone): 98.8%
- % Efficacy against fleas ([2]; Day 23, Trt. Group 4: 10 mg/kg in Dipropylene glycol monomethyl ether/butyl acetate): 99.5%
- % Efficacy against fleas ([2]; Day 23, Trt. Group 5: 10 mg/kg in Diisopropyl adipate): 100%
- % Efficacy against fleas ([2]; Day 23, Trt. Group 6: 10 mg/kg in Triacetin): 100%
- % Efficacy against fleas ([2]; Day 30, Trt. Group 2: 10 mg/kg in Butyl acetate/octyl acetate): 94.5%
- % Efficacy against fleas ([2]; Day 30, Trt. Group 3: 10 mg/kg in Diethylene glycol monoethyl ether (transcutol)/N-methyl-2-pyrrolidone): 91.4%
- % Efficacy against fleas ([2]; Day 30, Trt. Group 4: 10 mg/kg in Dipropylene glycol monomethyl ether/butyl acetate): 83.2%
- % Efficacy against fleas ([2]; Day 30, Trt. Group 5: 10 mg/kg in Diisopropyl adipate): 92.9%
- % Efficacy against fleas ([2]; Day 30, Trt. Group 6: 10 mg/kg in Triacetin): 99.7%
- % Efficacy against fleas ([2]; Day 37, Trt. Group 2: 10 mg/kg in Butyl acetate/octyl acetate): 80.4%
- % Efficacy against fleas ([2]; Day 37, Trt. Group 3: 10 mg/kg in Diethylene glycol monoethyl ether (transcutol)/N-methyl-2-pyrrolidone): 85.3%
- % Efficacy against fleas ([2]; Day 37, Trt. Group 4: 10 mg/kg in Dipropylene glycol monomethyl ether/butyl acetate): 76.5%
- % Efficacy against fleas ([2]; Day 37, Trt. Group 5: 10 mg/kg in Diisopropyl adipate): 69.1%
- % Efficacy against fleas ([2]; Day 37, Trt. Group 6: 10 mg/kg in Triacetin): 98.9%
- % Efficacy against fleas ([2]; Day 44, Trt. Group 2: 10 mg/kg in Butyl acetate/octyl acetate): 46.9%
- % Efficacy against fleas ([2]; Day 44, Trt. Group 3: 10 mg/kg in Diethylene glycol monoethyl ether (transcutol)/N-methyl-2-pyrrolidone): 38.9%
- % Efficacy against fleas ([2]; Day 44, Trt. Group 4: 10 mg/kg in Dipropylene glycol monomethyl ether/butyl acetate): 31.1%
- % Efficacy against fleas ([2]; Day 44, Trt. Group 5: 10 mg/kg in Diisopropyl adipate): 40.3%
- % Efficacy against fleas ([2]; Day 44, Trt. Group 6: 10 mg/kg in Triacetin): 93.0%

Structure (SMILES): N#Cc1nn(-c2c(Cl)cc(C(F)(F)F)cc2Cl)c(N)c1[S+]([O-])C(F)(F)F (stereo not drawn) [fipronil, 5-amino-3-cyano-1-(2,6-dichloro-4-trifluoromethylphenyl)-4-trifluoromethylsulfinylpyrazole]
- time detected in the whole skin after treatment [3]: up to 56 days
